Results published in the supplement of paper PMC10307832.

Experiments:
[1] = compound: CC1(C)CNc2cc(NC(=O)c3cccnc3NCc3ccncc3)ccc21 [Motesanib] + CC(=O)Nc1cccc(-n2c(=O)n(C3CC3)c(=O)c3c(Nc4ccc(I)cc4F)n(C)c(=O)c(C)c32)c1 [Trametinib] (partner 0.02 µM); assay: relative viability (nuclei count vs DMSO), 5 days (fraction); higher = more cells survive
Outline: (§1)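 Dosing by pin tool came one day after lung cancer cell lines were seeded in 1536-well plates, using either one drug or a fixed anchor-drug dose plus five library-drug doses (not always all listed) in √10 steps. After 5 days, nuclei were counted on 4× images. Relative viability is treated-well nuclei count divided by vehicle-well nuclei count, and values are medians of duplicate plates.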

[2] = compound: CC1(C)CNc2cc(NC(=O)c3cccnc3NCc3ccncc3)ccc21 [Motesanib] + NC(=O)Nc1cc(-c2cccc(F)c2)sc1C(=O)N[C@H]1CCCNC1 [AZD7762] (partner 0.2 µM); assay: as above
Outline: as §1

Cell Line	relative viability ([1]; first compound 0.01 µM)	relative viability ([1]; first compound 0.03162 µM)	relative viability ([1]; first compound 0.1 µM)	relative viability ([1]; first compound 0.3162 µM)	relative viability ([1]; first compound 1 µM)	relative viability ([2]; first compound 0.01 µM)	relative viability ([2]; first compound 0.03162 µM)	relative viability ([2]; first compound 0.1 µM)	relative viability ([2]; first compound 0.3162 µM)	relative viability ([2]; first compound 1 µM)
NCI-H650	0.916	1.07	0.946	1.02	1.06	1.05	1.09	1.07	0.965	1
NCI-H661	0.485	0.547	0.606	0.547	0.571	–	–	–	–	–
NCI-H727	0.381	0.363	0.385	0.379	0.354	0.547	0.56	0.856	0.488	0.58
NCI-H838	0.494	0.568	0.507	0.544	0.529	0.895	0.872	0.984	1	0.994
NCI-H1355	0.398	0.473	0.463	0.4	0.459	0.778	0.54	0.837	0.687	0.673
NCI-H1395	0.98	0.977	1.06	1.04	1.19	0.387	0.372	0.39	0.405	0.399
NCI-H1437	0.587	0.471	0.529	0.492	0.518	1.05	1.08	1.15	1.11	1.11
NCI-H1648	0.433	–	–	0.566	0.471	0.496	–	–	0.702	0.597
NCI-H1650	0.684	0.531	0.636	0.547	0.623	–	–	–	–	–
NCI-H1651	0.817	0.796	0.777	0.849	0.847	0.401	0.499	0.547	0.451	0.463
NCI-H1666	0.736	0.904	0.905	0.858	0.838	0.809	0.927	1.02	0.898	0.909
NCI-H1703	–	–	–	–	–	–	0.127	0.139	0.13	0.13
NCI-H1734	0.6	0.625	0.644	0.676	0.723	0.548	0.648	0.584	0.499	0.457
NCI-H1755	0.782	0.765	0.799	0.85	0.831	0.407	0.45	0.467	0.425	0.383
NCI-H1792	0.511	0.37	0.43	0.528	0.442	0.621	0.706	0.92	0.635	0.71
NCI-H1793	0.375	0.362	0.513	0.409	0.523	0.41	0.243	0.605	0.514	0.413
NCI-H1915	0.209	0.338	0.318	0.288	0.365	0.676	0.66	0.747	0.711	0.755
NCI-H1944	0.438	0.442	0.408	0.455	0.384	0.425	0.476	0.532	0.541	0.472
